Measurements: publication PMC7910904, “Improving the Antioxidant Properties of Calophyllum inophyllum Seed Oil from French Polynesia: Development and Biological Applications of Resinous Ethanol-Soluble Extracts” (Antioxidants, 2021)

Target: T1, proteinase K (PTA) (Parengyodontium album, UniProt P06873)
T1 construct: purchased Sigma-Aldrich
Experiment: Proteinase inhibitory activity
Format: biochemical
Settings: compounds at 150 µg/mL
Protocol: Anti-inflammatory properties of the extracts were evaluated by their proteinase and lipoxygenase inhibitory activities as described. Briefly, PTA (0.06 mg) was dissolved in 2 mL of Tris HCl buffer (20 mM, pH 7.4) containing a suspension of each extract (100–600 µg/mL). The mixture was incubated at 37 °C for 5 min, and 1 mL of 4% BSA was added. Incubation was prolonged for 20 min, and afterwards 2 mL of 5% trichloroacetic acid was added to the mixture. After centrifugation (3000 rpm, 10 min, 4 °C) the absorbance was read at 210 nm against buffer as blank, and the percentage of proteinase inhibition activity was calculated. Experiments were performed in triplicate and averaged. The anti-inflammatory drug diclofenac (100–300 µg/mL) was used as a standard for comparison.

T1 sequence (P06873 106-384): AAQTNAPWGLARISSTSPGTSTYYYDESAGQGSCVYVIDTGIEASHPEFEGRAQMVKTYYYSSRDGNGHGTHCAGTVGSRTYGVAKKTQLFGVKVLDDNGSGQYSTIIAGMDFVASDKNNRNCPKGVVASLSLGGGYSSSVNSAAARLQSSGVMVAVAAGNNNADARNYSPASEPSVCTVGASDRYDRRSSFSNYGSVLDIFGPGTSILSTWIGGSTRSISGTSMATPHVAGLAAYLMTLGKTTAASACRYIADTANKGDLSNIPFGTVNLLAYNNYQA

## O=C(O)Cc1ccccc1Nc1c(Cl)cccc1Cl [Diclofenac]
  inhibition at 150 µg/mL: 64 ± 2%
